Columns and labels:
[1] = human, doses up to 1800 mg/day; cited from earlier work
Ras, ERK, or Akt = test: total Ras, ERK, Akt in serum-stimulation experiment; format: cell-based, human; settings: STS26T cells, serum-stimulation conditions
Procedure: (§1) Unless otherwise indicated, cells were lysed 48 hours after being treated with lysis buffer, as described in Haklai, et al., supra. […] Protein bands were visualized by ECL and quantified by densitometry with Image Master VDS-CL (Amersham) using TINA 2.0 software (Ray Tests). To obtain reliable comparisons between replicated experiments for statistical analysis, a standardization procedure was used, in which the density of each given protein band as recorded with its specific Ab, was normalized. […] The standard average density was defined as 1.0, and each of the individually determined bands was related to this value. […] Actin cytoskeletal elements were labeled with rhodamine-phalloidin, and digital fluorescence images were collected on a Zeiss LSM 510 confocal microscope fitted with fluorescein and rhodamine filters, as described in Gana-Weisz, M., et al., supra.
(§2) First, the time courses of serum-stimulated GTP loading of Ras and serum-stimulated activation of signals downstream of Ras were determined. […]

[2] = tested on: ST88-14, 90-8, T265P21 and non-NF-1 STS26T cells; test: cell growth, photomicrographs of control and FTS-treated cells; format: cell-based, human; settings: 50 μM FTS, two days
Procedure: (§3) The human NF-1 MPNST cell lines ST88-14, T265P21 and 90-8 and the non-NF-1 human MPNST cell line STS26T were obtained from Dr. Nancy Ratner. T265P21, 90-8, and ST88-14 cells were maintained in RPMI/15% fetal calf serum (FCS) medium and STS26T cells were maintained in DMEM/10% FCS, as described in Weisz, B., et al., supra. Cells were plated at a density of 1×10^6 cells per 10-cm plate for biochemical and immunoblotting assays, 2.5×10^3 cells/well in 24-well plates for cell-growth assays, or on glass cover slips (5×10^4 cells per 35-mm dish) for labeling of actin cytoskeletal elements. The cells were incubated for 24 hours, treated with the indicated concentration of FTS or with the vehicle (0.1% DMSO) (control) for the times specified in each of the experiments, and then subjected to the various assays as described below. The effect of FTS on cell growth was estimated by direct counting of cells collected from each well, as described in Weisz, B., et al., supra.
(§4) To determine the effects of the Ras inhibitor FTS on the growth rates of the NF-1 cell lines ST88-14, 90-8, T265P21 and the non-NF-1 STS26T cells, the cells were grown for two days in the absence and in the presence of 50 μM FTS, and then photomicrographed. […] Additionally, cells were grown for three days and then detached, collected, and counted as described in Methods to determine dose-dependent inhibition by FTS.

phospho-Akt = test: serum-stimulated phospho-Akt, kinetic study; format: cell-based, human
Procedure: as §1, §2

90-8 cells = test: cell growth, direct counting of cells, FTS dose-response; format: cell-based; settings: Homo sapiens, 72 h, grown three days, FTS 12.5-100 μM, means±SD, n=4, read-out: estimated IC50, decrease in cell number
Procedure: as §3, §4

STS26T cells = test: as above; format: cell-based; settings: Homo sapiens, STS-26T, 72 h, grown three days, FTS 12.5-100 μM, means±SD, n=4, read-out: estimated IC50, decrease in cell number
Procedure: as §3, §4

ST88-14 cells = test: as above; format: cell-based; settings: Homo sapiens, 72 h, grown three days, FTS 12.5-100 μM, means±SD, n=4, read-out: estimated IC50, decrease in cell number
Procedure: as §3, §4

phospho-ERK = test: serum-stimulated phospho-ERK, kinetic study; format: cell-based, human
Procedure: as §1, §2

[3] = STS26T cells, serum-starved 24 hours, stimulated with 10% serum
[4] = all NF-1 cell lines (T265P21, ST88-14, 90-8)

For `CC(C)=CCC/C(C)=C/CC/C(C)=C/CSc1ccccc1C(=O)O` [FTS, S-farnesylthiosalicylic acid], the dose-limiting toxicities [1] is listed as “no dose-limiting toxicities”, the “total amounts of Ras, ERK, or Akt” value (Ras, ERK, or Akt) is listed as “no effect” and the cell death [2] is listed as “no significant cell death”. For the same molecule, the “cell number (photomicrographs)” value [2] was “drug-induced reduction in cell number”, the “serum-stimulated increase in phospho-Akt” value (phospho-Akt; [3]) was “inhibited” and the “serum-stimulated increase in phospho-Akt” value (phospho-Akt; [4]) was “reduced”. For the same molecule, the IC50 (90-8 cells) was 42 ± 9 µM, the IC50 (STS26T cells) was 53 ± 10 µM and the IC50 (ST88-14 cells) was 42 ± 13 µM. For the same molecule, the “serum-stimulated increase in phospho-ERK” value (phospho-ERK; [3]) was “inhibited” and the “serum-stimulated increase in phosphor-ERK” value (phospho-ERK; [4]) was “reduced”.

— US20110046223A1, “TREATMENT OF NEUROFIBROMATOSIS” (RAMOT AT TEL-AVIV UNIVERSITY LTD., priority 2006, published 2011)
